Assay results reported in US20240156860A1, “METHOD OF TREATING INFECTED AND NONINFECTED BURN WOUNDS” (priority 2021, published 2024).

Tests used:
Assay type in all cases: cell-based, Pseudomonas aeruginosa
PAO1 = assay: Checkerboard assay for MIC and FIC determination; details: strain PAO1
Procedure: (§1) The inventors further confirmed the bactericidal activity of AB569 gel against various clinical strains of PA isolated from burn wound patients by synergy measurements using the checkerboard analysis. […] FICI=Fractional inhibitory concentration index. […] is synergistic; 0.5<FICI<1 is weak synergistic.
(§2) 96-well polystyrene plates were filled with 100 μl of LB, pH 6.5 and 10% SS hydrogel (Smith and Nephew, London, UK). Row A was filled with 100 μl of a 4× stock of Na2-EDTA (16 mM) and […] was filled with 4× NaNO2 stock (256 mM), bringing both to a 2× concentration. Two-fold serial dilutions were performed such that a concentration gradient of each was created. Column 12 was filled with media to represent a negative control. An overnight culture of bacteria was adjusted to an OD600 of 0.5 in LB media. This was then diluted 1:1000 into fresh media, which was then added to the checkerboard plate (columns 1-11). This dilution was selected as it harbored ˜5×10^5 CFU/ml. Column 11 was the positive control. Plates were incubated at 37° C. The cell turbidity was determined using a 96 well plate reader after 24 hours inoculation. The threshold used for a positive cutoff to calculate MICs and FICs was 0.001 after blank (media) subtraction.

[1] = system: clinical strains of PA isolated from burn wounds; assay: Checkerboard assay for MIC and FIC determination; details: for MIC EDTA / MIC NaNO2: LB pH 6.5, 10% SS hydrogel, 24 hours; for FIC NaNO2: NaNO2 in combination with EDTA
Procedure: as §1, §2

bioluminescent PA Xen41 = assay: Broth based killing assay; details: for killing of PA Xen41: 2 mM Na2-EDTA and/or 30 mM NaNO2 with gel (Solosite) 1:100, LB pH 6.5, 48 hours
Procedure: The efficacy of a formulation according to the present disclosure was tested in vitro using an overnight culture of bioluminescent PA Xen41, diluted in LB media (pH 6.5) along with a gel (Solosite®, herein SS) at a 1:100 dilution. Bioluminescent PA was used for both in vitro and in vivo experiments.
(§3) Bioluminescent PA-Xen41 was grown overnight in LB media at 37° C. with shaking. Overnight cultures were diluted 100-fold into fresh LBN (LB-1% KNO3) 6.5 media and 5 ml aliquots were transferred to culture tubes. Final concentrations of 30 mM NaNO2 and/or 2 mM Na2-EDTA were added to each tube. Cells were grown anaerobically at 37° C. mimicking a mature biofilm. Samples were taken daily for 48 hours while the cells were still in the anaerobic chamber. Samples were serially diluted in PBS, pH 7.4, and 10 μl aliquot from each dilution placed on LB agar plates and grown aerobically overnight at 37° C. CFU were enumerated the next morning and converted to CFU/ml after multiplying by the dilution factor.

[2] = system: clinical strains of PA isolated from human burn patients; assay: Broth based killing assay on clinical strains; details: gel formulation; 2 mM Na2-EDTA and/or 30 mM NaNO2; strains with varying antibiotic sensitivity and resistance
Procedure: The efficacy of the AB569 gel formulation was tested on different clinical strains of PA isolated from human burn patients with varying sensitivity and resistance to antibiotics using a broth based killing assay.
as §3

[3] = LB pH 6.5, 10% SS hydrogel, 24 hours

`O=C([O-])CN(CCN(CC(=O)[O-])CC(=O)O)CC(=O)O.[Na+].[Na+]` [Na2-EDTA, di-sodium EDTA] was tested, and the “FIC EDTA” value (PAO1; EDTA in combination with NaNO2) was 0.333 ± 0.144 mM, the “MIC EDTA” value (PAO1; [3]) was 0.833 ± 0.289 mM and the “MIC EDTA” value ([1]; strain Burn #1-1) was 0.5 ± 0^ mM. The “MIC EDTA” value ([1]; strain Burn #1) was 0.833 ± 0.289 mM, the “MIC EDTA” value ([1]; strain Burn #2-1) was 0.833 ± 0.289 mM and the “MIC EDTA” value ([1]; strain Burn #2) was 0.5 ± 0^ mM. The “MIC EDTA” value ([1]; strain Burn #3-1) was 0.667 ± 0.289 mM, the “MIC EDTA” value ([1]; strain Burn #3) was 0.833 ± 0.289 mM and the “MIC EDTA” value ([1]; strain Burn #4-1) was 0.5 ± 0^ mM. For the same compound, the “MIC EDTA” value ([1]; strain Burn #4) was 0.667 ± 0.289 mM, the “MIC EDTA” value ([1]; strain Burn #5-1) was 0.5 ± 0^ mM and the “MIC EDTA” value ([1]; strain Burn #5) was 0.5 ± 0^ mM. The “MIC EDTA” value ([1]; strain Burn #6-1) was 0.5 ± 0^ mM, the “MIC EDTA” value ([1]; strain Burn #6) was 0.667 ± 0.289 mM and the “MIC EDTA” value ([1]; strain Burn #7-1) was 0.5 ± 0^ mM. The “MIC EDTA” value ([1]; strain Burn #7) was 0.833 ± 0.289 mM, the “MIC EDTA” value ([1]; strain Burn #8-1) was 0.5 ± 0^ mM and the “MIC EDTA” value ([1]; strain Burn #8) was 0.667 ± 0.289 mM. For the same compound, the “MIC EDTA” value ([1]; strain Burn #9-1) was 0.5 ± 0^ mM, the “MIC EDTA” value ([1]; strain Burn #9) was 0.5 ± 0^ mM and the “MIC EDTA” value ([1]; strain Burn #10-1) was 0.416 ± 0.144 mM. The “MIC EDTA” value ([1]; strain Burn #11-1) was 0.667 ± 0.289 mM, the “MIC EDTA” value ([1]; strain Burn #12-1) was 0.5 ± 0^ mM and the “killing of PA Xen41” value (bioluminescent PA Xen41) was “significant killing”. For the same compound, the “killing of clinical strains of PA” value [2] was “efficient killing”.

For `O=N[O-].[Na+]` [NaNO2], the “MIC NaNO2” value (PAO1; [3]) was 18.667 ± 12.220 mM, the “FIC NaNO2” value (PAO1; NaNO2 in combination with EDTA) was 4.083 ± 3.876 mM and the “MIC NaNO2” value ([1]; strain Burn #1-1) was 26.667 ± 9.238 mM. For the same compound, the “FIC NaNO2” value ([1]; strain Burn #1-1) was 5.333 ± 2.309 mM, the “MIC NaNO2” value ([1]; strain Burn #1) was 18.667 ± 12.220 mM and the “FIC NaNO2” value ([1]; strain Burn #1) was 4.167 ± 3.752 mM. For the same compound, the “MIC NaNO2” value ([1]; strain Burn #2-1) was 26.667 ± 9.238 mM, the “FIC NaNO2” value ([1]; strain Burn #2-1) was 6.667 ± 2.309 mM and the “MIC NaNO2” value ([1]; strain Burn #2) was 14.667 ± 15.144 mM. The “FIC NaNO2” value ([1]; strain Burn #2) was 7.333 ± 7.572 mM, the “MIC NaNO2” value ([1]; strain Burn #3-1) was 21.333 ± 9.238 mM and the “FIC NaNO2” value ([1]; strain Burn #3-1) was 5.333 ± 2.309 mM. The “MIC NaNO2” value ([1]; strain Burn #3) was 24 ± 13.856 mM, the “FIC NaNO2” value ([1]; strain Burn #3) was 6.667 ± 2.309 mM and the “MIC NaNO2” value ([1]; strain Burn #4-1) was 21.333 ± 9.238 mM. For the same compound, the “FIC NaNO2” value ([1]; strain Burn #4-1) was 9.333 ± 6.110 mM, the “MIC NaNO2” value ([1]; strain Burn #4) was 13.333 ± 4.618 mM and the “FIC NaNO2” value ([1]; strain Burn #4) was 2.75 ± 2.165 mM. The “MIC NaNO2” value ([1]; strain Burn #5-1) was 21.333 ± 9.238 mM, the “FIC NaNO2” value ([1]; strain Burn #5-1) was 2.667 ± 1.155 mM and the “MIC NaNO2” value ([1]; strain Burn #5) was 13.333 ± 4.618 mM. The “FIC NaNO2” value ([1]; strain Burn #5) was 4.667 ± 3.055 mM, the “MIC NaNO2” value ([1]; strain Burn #6-1) was 13.333 ± 4.618 mM and the “FIC NaNO2” value ([1]; strain Burn #6-1) was 2.333 ± 1.523 mM. The “MIC NaNO2” value ([1]; strain Burn #6) was 18.667 ± 12.220 mM, the “FIC NaNO2” value ([1]; strain Burn #6) was 5.333 ± 2.309 mM and the “MIC NaNO2” value ([1]; strain Burn #7-1) was 21.333 ± 9.238 mM. The “FIC NaNO2” value ([1]; strain Burn #7-1) was 6 ± 3.464 mM, the “MIC NaNO2” value ([1]; strain Burn #7) was 24 ± 13.856 mM and the “FIC NaNO2” value ([1]; strain Burn #7) was 6.667 ± 2.309 mM. The “MIC NaNO2” value ([1]; strain Burn #8-1) was 21.333 ± 9.238 mM, the “FIC NaNO2” value ([1]; strain Burn #8-1) was 0.75 ± 0.433 mM and the “MIC NaNO2” value ([1]; strain Burn #8) was 16 ± 0 mM. For the same compound, the “FIC NaNO2” value ([1]; strain Burn #8) was 2.167 ± 1.756 mM, the “MIC NaNO2” value ([1]; strain Burn #9-1) was 21.333 ± 9.238 mM and the “FIC NaNO2” value ([1]; strain Burn #9-1) was 4.666 ± 3.055 mM. For the same compound, the “MIC NaNO2” value ([1]; strain Burn #9) was 13.333 ± 4.618 mM, the “FIC NaNO2” value ([1]; strain Burn #9) was 5.333 ± 2.309 mM and the “MIC NaNO2” value ([1]; strain Burn #10-1) was 16 ± 0 mM. The “FIC NaNO2” value ([1]; strain Burn #10-1) was 4 ± 0 mM, the “MIC NaNO2” value ([1]; strain Burn #11-1) was 32 ± 27.713 mM and the “FIC NaNO2” value ([1]; strain Burn #11-1) was 8 ± 0 mM. The “MIC NaNO2” value ([1]; strain Burn #12-1) was 26.667 ± 9.238 mM, the “FIC NaNO2” value ([1]; strain Burn #12-1) was 6 ± 3.464 mM and the “killing of PA Xen41” value (bioluminescent PA Xen41) was “completely killed”. The “killing of PA Xen41” value (bioluminescent PA Xen41; listed as A-NO2^−) was “complete and maintained 48 hours” and the “bioluminescent signals of XEN41-containing plates (IVIS)” value (bioluminescent PA Xen41; 48 hours after treatment) was “elimination of bioluminescent signals”.
